Laboratory results as given in paper PMC4390552 (Chemical biology & drug design, 2014).

Columns and labels:
Format in all cases: cell-based, human
HPASMC = experiment: MTT cell viability assay; conditions: 100 μM CPP (H2O2 0.5 mM), 30-min incubation, OD 570 nm, quadruplicate
[1] = system: Akt phosphorylation in HPASMC; experiment: Growth factor-stimulated Akt phosphorylation in HPASMC; conditions: for Akt activation in HPASMC by growth factor: 10 ng/mL PDGF or VEGF in serum-free medium, Western blot, three experiments
[2] = system: ERK phosphorylation in HPASMC; experiment: Growth factor-stimulated ERK phosphorylation in HPASMC; conditions: for ERK activation in HPASMC by growth factor: 10 ng/mL PDGF or VEGF in serum-free medium, Western blot, three experiments
[3] = system: ERK phosphorylation in HPAEC; experiment: Growth factor-stimulated ERK phosphorylation in HPAEC; conditions: for ERK activation in HPAEC by growth factor: 10 ng/mL PDGF or VEGF in serum-free medium, Western blot, three experiments
[4] = system: Akt phosphorylation in HPAEC; experiment: Growth factor-stimulated Akt phosphorylation in HPAEC; conditions: 10 ng/mL PDGF or VEGF in serum-free medium; Western blot, three experiments

Compound | Effect on cell viability (MTT) (HPASMC) | Akt phosphorylation in HPASMC by EGF ([1]; 1 ng/mL EGF) | ERK phosphorylation in HPASMC by EGF ([2]; 1 ng/mL EGF) | Akt activation in HPASMC by growth factor [1] | ERK activation in HPAEC by growth factor [3] | ERK activation in HPASMC by growth factor [2] | Concentration at which the dose response of ERK activation maximized ([2]; HPASMC, increasing PDGF in serum-free medium) [ng/mL] | Akt activation in HPAEC by growth factor [4] | Concentration at which the dose response of ERK activation maximized ([3]; HPAEC, increasing VEGF in serum-free medium) [ng/mL]
OO [Hydrogen peroxide] | statistically significant toxicity |  |  |  |  |  |  |  | 
EGF: epidermal growth factor (NSDSECPLSHDGYCLHDGVCMYIEALDKYACNCVVGYIGERCQYRDLKWWELR; UniProt P01133 971-1023, looked up) |  | induced the phosphorylation of both ERK and Akt | induced the phosphorylation of both ERK and Akt |  |  |  |  |  | 
PDGF |  |  |  | activated | inactive | activated | 1 | failed to activate Akt | 
VEGF |  |  |  | no activity | strong ERK phosphorylation | no activity |  | failed to activate Akt | 1
